According to patent US11319300B2, “Polyfluoro-substituted aromatic heterocyclic derivative, pharmaceutical composition containing same, and applications thereof” (ZHEJIANG UNIVERSITY, priority 2017, dated 2022):
pIC50: −log10 of the molar value.

Experiments:
Akt2 = Akt2 (Homo sapiens, UniProt P31751); assay: Kinase selectivity assay (Caliper), Akt2; assay type: biochemical; details: Akt2 versus Akt1
Description: (§1) A Sixty-Second Embodiment: Kinase Selectivity Assay Test Compound Configuration 1) DMSO was configured with 50× compound stock solution for use. 2) Each compound was diluted in a 96-well plate at a concentration gradient of 5 to 7 to ensure a drug volume of 10 μl per well, to 6 to 7 concentrations, while 100 μl of DMSO was added as a blank control group, and a negative control group without an enzyme substrate was added. 3) Another 96-well plate was prepared, and 10 μl of the above compound was added to 90 μl of 1×kinase base buffer and mixed for 10 min. The board to be tested was prepared: 1) Take a mixture of 5 μl to 384-well plates in a 96-well plate of the above configuration, and per compound has two replicate wells. Kinase Reaction: 1) Configurate a 2.5×kinase solution and add the corresponding 1×kinase base buffer; 2) Configurate a 2.5× polypeptide solution, add a FAM-labeled polypeptide and ATP in a 1×kinase base buffer; 3) 10 μl of 2.5× kinase solution was added to the 384-well plate to be tested, put at room temperature for 10 min, then 10 μl of 2.5× polypeptide solution was added, and after reacting at 28° C. for 1 h, 25 μl of reaction stop buffer was added. The Caliper program reads the plate and uses the data to obtain the IC50 value of the corresponding compound inhibiting kinase. […]

HGC27 = assay: Tumour cell proliferation inhibition, MTT assay, HGC27; assay type: cell-based, human; details: Homo sapiens, HGC-27, 72 h
PKA = PKA (Homo sapiens, UniProt P17612); assay: Kinase selectivity assay (Caliper), PKA; assay type: biochemical; details: PKA versus Akt1
Description: as §1

AKT1/PKBα = molecular target: T1, AKT1/PKBα (Homo sapiens, UniProt P31749); assay: Akt1 enzyme inhibitory activity, AKT1/PKBα KinEASE FP Fluorescein Green Assay; assay type: biochemical; details: fluorescence polarization kit assay; read-out: Akt1 IC50 (grade)
T1 construct: purchased
T1 sequence (P31749 whole entry): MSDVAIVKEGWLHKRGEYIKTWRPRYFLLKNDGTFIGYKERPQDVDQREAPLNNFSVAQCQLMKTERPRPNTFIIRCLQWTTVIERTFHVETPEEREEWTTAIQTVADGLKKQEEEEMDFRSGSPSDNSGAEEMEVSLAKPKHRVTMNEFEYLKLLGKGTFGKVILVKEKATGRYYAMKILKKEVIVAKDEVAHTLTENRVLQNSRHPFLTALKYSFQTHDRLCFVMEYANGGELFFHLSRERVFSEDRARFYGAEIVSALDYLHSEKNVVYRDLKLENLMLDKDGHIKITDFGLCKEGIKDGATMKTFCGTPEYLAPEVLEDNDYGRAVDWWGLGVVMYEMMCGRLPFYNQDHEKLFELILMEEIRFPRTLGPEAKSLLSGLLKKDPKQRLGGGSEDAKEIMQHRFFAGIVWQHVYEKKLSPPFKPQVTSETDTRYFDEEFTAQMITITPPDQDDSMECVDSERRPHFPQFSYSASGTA
Description: Compound AZD5363 (NCT02208375, NCT02208375, NCT01625286), which have entered the clinical phase II study, was used as a positive control, and the compound was assayed against common tumour cell lines (human ovarian cancer cell line OVCAR-8 and human colon cancer cell line HCT-116) by MTT assay, at the same time, the akt1 enzyme inhibitory activity (IC50) was evaluated using a commercial Akt1 kit.
2) Test method for the inhibitory activity of the compound of the present invention against Akt1 enzyme:
The AKT1/PKBα KinEASE™ FP Fluorescein Green Assay (Kinase Green Fluorescence Detection System) was used to detect the inhibitory activity of the compound on AKT1/PKBα.
Fluorescence polarization detection protein kinase B employs the principle of a competitive reaction: a fluorescently labeled phosphorylated tracer and an unlabeled phosphorylated product produced by the reaction of protein kinase B will compete with the anti-serine antibody for binding. In a reaction mixture […], when a part of the fluorescent tracer binds to the antibody, it causes a higher polarization value. However, in the reaction solution mixture containing the phosphorylated product, less tracer binds to the antibody (the fluorescent tracer was replaced from the antibody) and the emitted signal was depolarized. Therefore, the change in polarization was directly related to the activity of protein kinase B in the reaction.
The compound of the present invention and the positive control AZD5363 were dissolved in dimethyl sulfoxide (DMSO) and diluted to a concentration of 50 μM. At room temperature, 0.25 μl of the compound sample and the positive control at a concentration of 50 μM were taken and added to the 384-well plate, and three parallel wells were set for each sample, and then 10 μl of STK Substrate 3, Working Solution, 5 μl AKT1/PKBα Working Solution, 10 μl ATP Working Solution were added to each sample well plate with vibrating gently and shaking for a few minutes. The reaction starts after 10 μl of ATP Working Solution was added to the well, and the reaction was timed at room temperature for 1 hour. After one hour, 5 μl of STK Stop Mix and 5 μl of STK Antibody Mix were added to each well respectively to stop the reaction. After the addition completes, it was allowed to stand at room temperature for four hours, and the polarization value of the sample was detected by the fluorescence polarization of the microplate reader (it was effective to detect its signal within 24 hours), and the inhibition rate of the compound was calculated by the polarization value, and then IC50 was calculated.
Four sets of controls were set in the experiment, namely Buffer Control Wells, Tracer Control Wells, No Enzyme Wells, and a blank dimethyl sulfoxide control. The resulting data was used to calculate the inhibition rate.
The activity of the compound was divided into three grades according to the size of the IC50 of the Akt inhibitory activity: “+++”, 1 nM<IC50<10 nM; “++”, 10 nM<IC50<50 nM; “+”, 50 nM<IC50.

Akt3 = Akt3 (Homo sapiens, UniProt Q9Y243); assay: Kinase selectivity assay (Caliper), Akt3; assay type: biochemical; details: Akt3 versus Akt1
Chain of Akt3 (Q9Y243 whole entry): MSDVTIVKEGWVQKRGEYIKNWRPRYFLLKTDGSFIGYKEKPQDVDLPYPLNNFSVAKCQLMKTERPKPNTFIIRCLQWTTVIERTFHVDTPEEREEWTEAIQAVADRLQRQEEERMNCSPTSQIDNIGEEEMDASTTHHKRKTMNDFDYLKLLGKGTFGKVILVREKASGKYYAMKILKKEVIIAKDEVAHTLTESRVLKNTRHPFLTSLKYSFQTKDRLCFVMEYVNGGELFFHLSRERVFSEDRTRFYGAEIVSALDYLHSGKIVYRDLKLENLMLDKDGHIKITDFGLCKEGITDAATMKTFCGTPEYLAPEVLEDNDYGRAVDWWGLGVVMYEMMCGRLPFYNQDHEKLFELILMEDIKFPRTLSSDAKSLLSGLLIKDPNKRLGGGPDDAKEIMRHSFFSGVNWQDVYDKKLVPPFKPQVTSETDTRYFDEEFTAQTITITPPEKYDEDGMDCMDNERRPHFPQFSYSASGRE
Description: as §1

CEM-C1 = assay: Tumour cell proliferation inhibition, MTT assay, CEM-C1; assay type: cell-based, human; details: Homo sapiens, CEM/C1, 72 h
hERG potassium channel = molecular target: T2, hERG potassium channel (Homo sapiens, UniProt Q12809); assay: hERG potassium channel inhibition, manual whole-cell patch clamp in CHO hERG cells; assay type: cell-based; details: 3 μM, CHO hERG cells, patch clamp
T2 construct: host or cells: CHO
T2 sequence (Q12809 whole entry): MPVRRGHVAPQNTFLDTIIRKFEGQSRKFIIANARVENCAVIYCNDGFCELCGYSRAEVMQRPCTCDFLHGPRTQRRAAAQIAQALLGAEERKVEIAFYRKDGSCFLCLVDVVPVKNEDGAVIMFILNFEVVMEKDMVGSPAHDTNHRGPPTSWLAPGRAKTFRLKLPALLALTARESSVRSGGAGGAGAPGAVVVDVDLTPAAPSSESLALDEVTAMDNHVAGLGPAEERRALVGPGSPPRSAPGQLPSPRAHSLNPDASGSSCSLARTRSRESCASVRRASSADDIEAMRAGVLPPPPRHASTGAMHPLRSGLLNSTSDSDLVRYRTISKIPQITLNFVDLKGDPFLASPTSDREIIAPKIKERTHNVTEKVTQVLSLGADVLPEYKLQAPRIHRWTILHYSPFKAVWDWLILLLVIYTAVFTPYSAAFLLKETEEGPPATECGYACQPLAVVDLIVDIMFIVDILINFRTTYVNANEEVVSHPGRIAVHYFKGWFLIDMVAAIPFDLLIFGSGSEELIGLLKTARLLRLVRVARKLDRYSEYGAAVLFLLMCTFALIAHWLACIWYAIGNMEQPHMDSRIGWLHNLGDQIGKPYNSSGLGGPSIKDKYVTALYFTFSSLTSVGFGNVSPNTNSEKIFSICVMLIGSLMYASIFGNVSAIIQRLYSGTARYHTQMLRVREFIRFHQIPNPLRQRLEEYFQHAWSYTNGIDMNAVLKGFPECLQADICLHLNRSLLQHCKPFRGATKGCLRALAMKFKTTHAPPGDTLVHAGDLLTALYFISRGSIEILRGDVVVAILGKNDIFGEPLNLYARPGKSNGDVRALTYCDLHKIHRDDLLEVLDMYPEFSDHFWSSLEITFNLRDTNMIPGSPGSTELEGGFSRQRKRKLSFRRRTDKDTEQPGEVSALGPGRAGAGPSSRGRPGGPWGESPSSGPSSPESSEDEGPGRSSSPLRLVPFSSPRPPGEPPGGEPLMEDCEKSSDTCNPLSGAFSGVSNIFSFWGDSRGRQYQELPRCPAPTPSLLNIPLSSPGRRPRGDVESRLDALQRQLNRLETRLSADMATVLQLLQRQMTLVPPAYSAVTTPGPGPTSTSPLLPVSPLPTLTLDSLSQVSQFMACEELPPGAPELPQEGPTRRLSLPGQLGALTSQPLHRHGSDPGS
Description: A Sixty-Third Embodiment: hERG Potassium Channel Inhibition Activity Experiment
The cells used in this assay were CHO cell lines transfected with hERG cDNA and stably expressing the hERG channel (supplied by Sophion Bioscience, Denmark). The cells were cultured in medium containing the following components (all from Invitrogen): Ham's F12 medium, 10% (v/v) inactivated fetal bovine serum, 100 μg/ml hygromycin B, and 100 μg/ml Geneticin. 2.1.2CHO hERG cells were grown in a Petri dish containing the above culture solution, and cultured in an incubator containing 5% of CO2 at 37° C. 24 to 48 hours prior to electrophysiological experiments, CHO hERG cells were transferred to circular glass slides placed in petri dishes and grown under the same culture and culture conditions as above. The density of CHO hERG cells on each circular slide requires that most cells achieve independent, individual requirements.
2. Compound Treatment and Dilution
To obtain the IC50 of the compound, we selecte the following concentrations (30, 10, 3, 1, 0.3, and 0.1 μM) for testing. Prior to testing, the […] were first diluted to 10, 3, 1, 0.3, and 0.1 mM stock solution in gradual dilution with DMSO and then diluted to the final μM test concentration with extracellular fluid. The final concentration of DMSO in each of the other compound solutions was 0.1% except that the DMSO concentration in the 30 μM compound test solution was 0.3%. The positive control Cisapride (cishabili) was tested at a concentration of 0.1 μM. All compound solutions were sonicated and shaken for 5 to 10 minutes to ensure complete dissolution of the compound.
3. Electrophysiological Recording System and Data Analysis
This experiment uses a manual patch clamp system (HEKA EPC-10 signal amplifier and digital conversion system, purchased from HEKA Electronics, Germany) for the recording of whole cell currents. Round slide with CHO hERG cells on the surface was placed in an electrophysiology recording cell under an inverted microscope. The extracellular fluid was continuously perfused in the recording tank (about 1 ml per minute). The experimental procedure uses conventional whole-cell patch clamp current recording techniques. Unless otherwise stated, the experiments were carried out at regular room temperature (˜25° C.). The cells were clamped at a voltage of −80 mV. The cell clamp voltage was depolarized to +20 mV to activate the hERG potassium channel, and after 5 seconds it was clamped to −50 mV to eliminate inactivation and generate tail current. The tail current peak was used as the value of the hERG current magnitude. After the hERG potassium current recorded in the above step was stabilized under the continuous extracellular fluid perfusion in the recording tank, the drug to be tested can be superimposed and filled until the inhibitory effect of the drug on the hERG current reaches a steady state. Generally, the recent three consecutive current recording lines were recombined as a criterion for judging whether or not the state is stable. After reaching a steady state, extracellular fluid perfusion rinse until hERG current returns to the size before adding drug. One cell can test one or more drugs, or multiple concentrations of the same drug, but need to be flushed with extracellular fluid between different drugs. Cisapride (cisapride, purchased from Sigma) was used in the experiment as a positive control to ensure that the cells used were of normal quality. The test data was analysed by HEKA Patchmaster, Microsoft Excel and data analysis software provided by Graphpad Prism.

PKC = assay: Kinase selectivity assay (Caliper), PKC; assay type: biochemical; details: PKC versus Akt1
Description: as §1

Chain of Akt2 (P31751 whole entry): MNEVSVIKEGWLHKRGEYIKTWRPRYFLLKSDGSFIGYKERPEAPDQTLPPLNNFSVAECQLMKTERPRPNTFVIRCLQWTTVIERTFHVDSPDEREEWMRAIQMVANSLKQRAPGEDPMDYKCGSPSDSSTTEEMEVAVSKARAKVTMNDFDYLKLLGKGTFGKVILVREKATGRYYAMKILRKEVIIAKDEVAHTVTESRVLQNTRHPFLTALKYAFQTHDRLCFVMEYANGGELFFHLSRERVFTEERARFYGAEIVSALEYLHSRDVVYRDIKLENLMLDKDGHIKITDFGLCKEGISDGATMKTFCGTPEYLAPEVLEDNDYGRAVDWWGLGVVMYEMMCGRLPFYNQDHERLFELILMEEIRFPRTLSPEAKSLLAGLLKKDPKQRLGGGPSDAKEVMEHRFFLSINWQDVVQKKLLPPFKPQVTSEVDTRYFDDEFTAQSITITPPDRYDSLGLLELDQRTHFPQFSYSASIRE

Kinase selectivity: (Akt2 inhibitory activity IC50)/(Akt1 inhibitory activity IC50) (Akt2) | pIC50 (HGC27) | Kinase selectivity: (PKA inhibitory activity IC50)/(Akt1 inhibitory activity IC50) (PKA) | pIC50 (AKT1/PKBα) | Kinase selectivity: (Akt3 inhibitory activity IC50)/(Akt1 inhibitory activity IC50) (Akt3) | pIC50 (CEM-C1) | Kinase selectivity: (PKC inhibitory activity IC50)/(Akt1 inhibitory activity IC50) (PKC) | SMILES | hERG (Inhibition rate at 3 μM concentration) (hERG potassium channel)
5.5-times | 7.30 | 1.3-times | 7.30 to 8.00 | 4.1-times | 6.68 |  | Cn1nccc1-c1cc(F)c(C(=O)N[C@@H]2CNCC[C@H]2c2ccc(F)c(F)c2)c(F)c1 [VII-12] | 
 |  | 1.2-times |  |  |  | 28-times | Cn1ncc(Cl)c1-c1cc(C(=O)N[C@H](CN)Cc2ccc(F)c(F)c2)oc1Cl [GSK2141795, reference compound] | 50%
